What was measured:
Format in all cases: in vivo
[1] = tested on: posumbu knotweed; experiment: Test Example 4: herbicidal effect in foliage treatment; conditions: dose 3.2 g/a, three weeks after application
How it was run: (§1)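 A uniform foliar spray of emulsifiable concentrate, diluted with water to give the stated g/a dose, was applied to plants raised for 14 days from seed in sterilized diluvial soil at 25 to 30° C. Herbicidal effects were scored three weeks later.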

[2] = tested on: common ragweed; experiment: as above; conditions: dose 3.2 g/a, three weeks after application
How it was run: as §1

[3] = tested on: velvetleaf; experiment: as above; conditions: dose 3.2 g/a, three weeks after application
How it was run: as §1

[4] = tested on: beadstraw; experiment: as above; conditions: dose 3.2 g/a, three weeks after application
How it was run: as §1

[5] = tested on: water foxtail; experiment: as above; conditions: dose 3.2 g/a, three weeks after application
How it was run: as §1

[6] = tested on: common chickweed; experiment: as above; conditions: dose 3.2 g/a, three weeks after application
How it was run: as §1

[7] = tested on: common lambsquater; experiment: as above; conditions: dose 3.2 g/a, three weeks after application
How it was run: as §1

[8] = tested on: large crabgrass; experiment: as above; conditions: dose 3.2 g/a, three weeks after application
How it was run: as §1

[9] = tested on: giant foxtail; experiment: as above; conditions: dose 3.2 g/a, three weeks after application
How it was run: as §1

[10] = tested on: wild oat; experiment: as above; conditions: dose 3.2 g/a, three weeks after application
How it was run: as §1

[11] = tested on: Italian ryegrass; experiment: as above; conditions: dose 3.2 g/a, three weeks after application
How it was run: as §1

[12] = tested on: redroot pigweed; experiment: as above; conditions: dose 3.2 g/a, three weeks after application
How it was run: as §1

[13] = tested on: barnyardgrass; experiment: as above; conditions: dose 3.2 g/a, three weeks after application
How it was run: as §1

[14] = tested on: ducksalad; experiment: Test Example 1: herbicidal effects in preemergence treatment under submerged conditions; conditions: dose 2.52 g/a
How it was run: (§2)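 Alluvial soil was flooded to 4 cm, sown with barnyardgrass, bulrush and ducksalad, and planted with 2.5-leaf rice seedlings. On the seeding day, water-diluted emulsifiable concentrates were applied to the water surface at set doses (g/a). After three weeks in a 25 to 30° C. greenhouse, mortality was scored 0–5.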

[15] = tested on: bulrush; experiment: as above; conditions: dose 2.52 g/a
How it was run: as §2

[16] = tested on: barnyardgrass; experiment: as above; conditions: dose 2.52 g/a
How it was run: as §2

[17] = tested on: posumbu knotweed; experiment: Test Example 3: herbicidal effects in soil treatment; conditions: dose 3.2 g/a
How it was run: (§3)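 Seeds were sown in sterilized diluvial soil and covered with about 1.5 cm of soil. Compounds, formulated as emulsifiable concentrates and diluted with water, were sprayed evenly over the soil surface at set doses in g/a. Herbicidal effect was scored on a rating scale three weeks later.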

[18] = tested on: common ragweed; experiment: as above; conditions: dose 3.2 g/a
How it was run: as §3

[19] = tested on: velvetleaf; experiment: as above; conditions: dose 3.2 g/a
How it was run: as §3

[20] = tested on: beadstraw; experiment: as above; conditions: dose 3.2 g/a
How it was run: as §3

[21] = tested on: water foxtail; experiment: as above; conditions: dose 3.2 g/a
How it was run: as §3

[22] = tested on: common chickweed; experiment: as above; conditions: dose 3.2 g/a
How it was run: as §3

[23] = tested on: common lambsquater; experiment: as above; conditions: dose 3.2 g/a
How it was run: as §3

[24] = tested on: large crabgrass; experiment: as above; conditions: dose 3.2 g/a
How it was run: as §3

[25] = tested on: giant foxtail; experiment: as above; conditions: dose 3.2 g/a
How it was run: as §3

[26] = tested on: wild oat; experiment: as above; conditions: dose 3.2 g/a
How it was run: as §3

[27] = tested on: Italian ryegrass; experiment: as above; conditions: dose 3.2 g/a
How it was run: as §3

[28] = tested on: redroot pigweed; experiment: as above; conditions: dose 3.2 g/a
How it was run: as §3

[29] = tested on: barnyardgrass; experiment: as above; conditions: dose 3.2 g/a
How it was run: as §3

[30] = tested on: transplanted rice; experiment: Test Example 1: preemergence treatment under submerged conditions, effect on crop; conditions: dose 2.52 g/a
How it was run: as §2

[31] = tested on: ducksalad; experiment: Test Example 2: herbicidal effects during the vegetation period under submerged conditions; conditions: treatment during the vegetation period under submerged conditions; dose 2.52 g/a
How it was run: (§4)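 Barnyardgrass, bulrush and ducksalad were co-sown in alluvial soil flooded to 4 cm and grown in a greenhouse at 25 to 30° C. At the 1- or 2-leaf stage, water-diluted emulsifiable concentrates went onto the water surface at set doses (g/a). Herbicidal effect was scored three weeks later on a graded scale.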

[32] = tested on: bulrush; experiment: as above; conditions: treatment during the vegetation period under submerged conditions; dose 2.52 g/a
How it was run: as §4

[33] = tested on: barnyardgrass; experiment: as above; conditions: treatment during the vegetation period under submerged conditions; dose 2.52 g/a
How it was run: as §4

CN(c1ccccc1CN1COC(C)(C)CC1=O)S(=O)(=O)C(F)(F)F [II-18]
M: posumbu knotweed, herbicidal effect [1]: 3 (mortality of at least 40% and less than 70%)
J: common ragweed, herbicidal effect [2]: 3 (mortality of at least 40% and less than 70%)
I: velvetleaf, herbicidal effect [3]: 0 (mortality of less than 5% (almost ineffective))
O: beadstraw, herbicidal effect [4]: 5 (mortality of 90% or above (nearly complete death))
G: water foxtail, herbicidal effect [5]: 0 (mortality of less than 5% (almost ineffective))
N: common chickweed, herbicidal effect [6]: 4 (mortality of at least 70% and less than 90%)
L: common lambsquater, herbicidal effect [7]: 0 (mortality of less than 5% (almost ineffective))
D: large crabgrass, herbicidal effect [8]: 0 (mortality of less than 5% (almost ineffective))
E: giant foxtail, herbicidal effect [9]: 0 (mortality of less than 5% (almost ineffective))
F: wild oat, herbicidal effect [10]: 0 (mortality of less than 5% (almost ineffective))
H: Italian ryegrass, herbicidal effect [11]: 0 (mortality of less than 5% (almost ineffective))
K: redroot pigweed, herbicidal effect [12]: 0 (mortality of less than 5% (almost ineffective))
A: barnyardgrass, herbicidal effect [13]: 4 (mortality of at least 70% and less than 90%)
C: ducksalad, herbicidal effect (evaluation scale 0-5) [14]: 0 (mortality of less than 5% (almost ineffective))
B: bulrush, herbicidal effect (evaluation scale 0-5) [15]: 5 (mortality of 90% or above (nearly complete death))
A: barnyardgrass, herbicidal effect (evaluation scale 0-5) [16]: 2 (mortality of at least 20% and less than 40%)
M: posumbu knotweed, herbicidal effect (evaluation scale 0-5) [17]: 0 (mortality of less than 5% (almost ineffective))
J: common ragweed, herbicidal effect (evaluation scale 0-5) [18]: 4 (mortality of at least 70% and less than 90%)
I: velvetleaf, herbicidal effect (evaluation scale 0-5) [19]: 0 (mortality of less than 5% (almost ineffective))
O: beadstraw, herbicidal effect (evaluation scale 0-5) [20]: 4 (mortality of at least 70% and less than 90%)
G: water foxtail, herbicidal effect (evaluation scale 0-5) [21]: 0 (mortality of less than 5% (almost ineffective))
N: common chickweed, herbicidal effect (evaluation scale 0-5) [22]: 4 (mortality of at least 70% and less than 90%)
L: common lambsquater, herbicidal effect (evaluation scale 0-5) [23]: 0 (mortality of less than 5% (almost ineffective))
D: large crabgrass, herbicidal effect (evaluation scale 0-5) [24]: 0 (mortality of less than 5% (almost ineffective))
E: giant foxtail, herbicidal effect (evaluation scale 0-5) [25]: 0 (mortality of less than 5% (almost ineffective))
F: wild oat, herbicidal effect (evaluation scale 0-5) [26]: 0 (mortality of less than 5% (almost ineffective))
H: Italian ryegrass, herbicidal effect (evaluation scale 0-5) [27]: 0 (mortality of less than 5% (almost ineffective))
K: redroot pigweed, herbicidal effect (evaluation scale 0-5) [28]: 0 (mortality of less than 5% (almost ineffective))
A: barnyardgrass, herbicidal effect (evaluation scale 0-5) [29]: 4 (mortality of at least 70% and less than 90%)
a: transplanted rice, effect on crop (evaluation scale 0-5) [30]: 0 (mortality of less than 5% (almost ineffective))
C: ducksalad, herbicidal effect (evaluation scale 0-5) [31]: 2 (mortality of at least 20% and less than 40%)
B: bulrush, herbicidal effect (evaluation scale 0-5) [32]: 5 (mortality of 90% or above (nearly complete death))
A: barnyardgrass, herbicidal effect (evaluation scale 0-5) [33]: 5 (mortality of 90% or above (nearly complete death))
